Reference: patent US11242353B2, “Heterocyclic LSF inhibitors and their uses” (TRUSTEES OF BOSTON UNIVERSITY, priority 2020, dated 2022)
Where two headings read alike, the source gives them in different places.

Test system: Huh7 cells
Experiment: growth inhibition of Huh7 cells
Format: cell-based
Conditions: single trials per figure (FIGS. 1A-4)
Protocol: FIGS. 1A-4 show results for growth inhibition of Huh7 cells upon contact with compounds (FQI-37Q), (FQI-34Q), (FQI-1Q), (JAK 196-22), and (JAK 196.23). Compounds (FQI-37Q) and (FQI-34Q) show high activities (GI50 about 0.5 μM and lower).

[1] = Homo sapiens, Huh-7, Huh7 cells, read-out: GI50 (growth inhibition of Huh7 cells)

GI50 [1]	Compound	other results
> 10000 nM	COc1cc([N+](=O)[O-])ccc1-n1c(=O)cnc2cc3c(cc21)OCO3 [JAK 196-22]	–
3600 nM	CCOc1ccccc1N1CC(=O)Nc2cc3c(cc21)OCO3 [FQI-1Q, 8-(2-ethoxyphenyl)-7,8-dihydro-[1,3]dioxolo[4,5-g]quinoxalin-6(5H)-one]	–
–	CCOc1cc(N(C)C)ccc1N1CC(=O)Nc2cc3c(cc21)OCCO3 [FQI-37Q, 9-(4-(dimethylamino)-2-ethoxyphenyl)-2,3,8,9-tetrahydro-[1,4]dioxino[2,3-g]quinoxalin-7(6H)-one]	GI50 (read-out: GI50 (growth inhibition of Huh7 cells), Huh7 cells): 501 nM
–	CCOc1cc(N(C)C)ccc1N1CC(=O)Nc2cc3c(cc21)OCO3 [FQI-34Q, 8-(4-(dimethylamino)-2-ethoxyphenyl)-7,8-dihydro-[1,3]dioxolo[4,5-g]quinoxalin-6(5H)-one]	GI50 (Homo sapiens, Huh-7, read-out: GI50 (growth inhibition of Huh7 cells), Huh7 cells): ≤ 500 nM
